# According to PubChem BioAssay (NCI):
#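 Here, GI50 denotes the concentration required for 50% inhibition of growth. The concentration for full growth arrest is given as TGI.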
# Tests used:
# Experiment in all cases: growth of human tumour cells (NCI), 384-well format
# 786-0 renal = system: 786-0 renal
# A498 renal = system: A498 renal
# A549 NSCLC = system: A549 NSCLC
# ACHN renal = system: ACHN renal
# BT-549 breast = system: BT-549 breast
# CAKI-1 renal = system: CAKI-1 renal
# COLO 205 colon = system: COLO 205 colon
# DU-145 prostate = system: DU-145 prostate
# EKVX NSCLC = system: EKVX NSCLC
# HCC-2998 colon = system: HCC-2998 colon
# HCT-116 colon = system: HCT-116 colon
# HCT-15 colon = system: HCT-15 colon
# HL-60(TB) leukemia = system: HL-60(TB) leukemia
# HOP-62 NSCLC = system: HOP-62 NSCLC
# HOP-92 NSCLC = system: HOP-92 NSCLC
# HS 578T breast = system: HS 578T breast
# HT29 colon = system: HT29 colon
# IGROV1 ovarian = system: IGROV1 ovarian
# KM12 colon = system: KM12 colon
# LOX IMVI melanoma = system: LOX IMVI melanoma
# M14 melanoma = system: M14 melanoma
# MALME-3M melanoma = system: MALME-3M melanoma
# MCF7 breast = system: MCF7 breast
# MDA-MB-435 melanoma = system: MDA-MB-435 melanoma
# MDA-MB-468 breast = system: MDA-MB-468 breast
# MOLT-4 leukemia = system: MOLT-4 leukemia
# NCI-H226 lung = system: NCI-H226 lung
# NCI-H23 lung = system: NCI-H23 lung
# NCI-H322M lung = system: NCI-H322M lung
# NCI-H460 NSCLC = system: NCI-H460 NSCLC
# NCI-H522 lung = system: NCI-H522 lung
# NCI/ADR-RES ovarian = system: NCI/ADR-RES ovarian
# OVCAR-3 ovarian = system: OVCAR-3 ovarian
# OVCAR-4 ovarian = system: OVCAR-4 ovarian
# OVCAR-5 ovarian = system: OVCAR-5 ovarian
# PC-3 prostate = system: PC-3 prostate
# RPMI-8226 leukemia = system: RPMI-8226 leukemia
# RXF 393 renal = system: RXF 393 renal
# SF-268 CNS = system: SF-268 CNS
# SF-295 CNS = system: SF-295 CNS
# SF-539 CNS = system: SF-539 CNS
# SK-MEL-28 melanoma = system: SK-MEL-28 melanoma
# SK-MEL-5 melanoma = system: SK-MEL-5 melanoma
# SK-OV-3 ovarian = system: SK-OV-3 ovarian
# SN12C renal = system: SN12C renal
# SNB-19 CNS = system: SNB-19 CNS
# SNB-75 CNS = system: SNB-75 CNS
# SR leukemia = system: SR leukemia
# T-47D breast = system: T-47D breast
# TK-10 renal = system: TK-10 renal
# U251 glioblastoma = system: U251 glioblastoma
# UACC-257 melanoma = system: UACC-257 melanoma
# UACC-62 melanoma = system: UACC-62 melanoma
# UO-31 renal = system: UO-31 renal
# MDA-MB-231 breast = system: MDA-MB-231 breast
# OVCAR-8 ovarian = system: OVCAR-8 ovarian
# SW-620 colon = system: SW-620 colon
compound,measurement,setting,value
CO[C@H]1C(=O)[C@]2(C)[C@@H](OC)C[C@H]3OC[C@@]3(OC(C)=O)[C@H]2[C@H](OC(=O)c2ccccc2)[C@]2(O)C[C@H](OC(=O)[C@H](O)[C@@H](NC(=O)OC(C)(C)C)c3ccccc3)C(C)=C1C2(C)C,GI50,786-0 renal,< 0.01 µM
same,TGI,786-0 renal,> 78.8 µM
same,GI50,A498 renal,< 0.01 µM
same,TGI,A498 renal,44.2 µM
same,GI50,A549 NSCLC,< 0.01 µM
same,TGI,A549 NSCLC,> 55.1 µM
same,TGI,ACHN renal,> 100 µM
same,GI50,BT-549 breast,< 0.01 µM
same,TGI,BT-549 breast,< 0.01 µM
same,GI50,CAKI-1 renal,< 0.0131 µM
same,TGI,CAKI-1 renal,> 69 µM
same,GI50,COLO 205 colon,< 0.01 µM
same,TGI,COLO 205 colon,< 0.01 µM
same,GI50,DU-145 prostate,< 0.01 µM
same,TGI,DU-145 prostate,< 0.01 µM
same,GI50,EKVX NSCLC,< 0.01 µM
same,TGI,EKVX NSCLC,39.8 µM
same,GI50,HCC-2998 colon,< 0.01 µM
same,TGI,HCC-2998 colon,< 0.01 µM
same,GI50,HCT-116 colon,< 0.01 µM
same,TGI,HCT-116 colon,> 100 µM
same,GI50,HCT-15 colon,< 0.01 µM
same,TGI,HCT-15 colon,> 100 µM
same,GI50,HL-60(TB) leukemia,< 0.01 µM
same,TGI,HL-60(TB) leukemia,< 0.01 µM
same,GI50,HOP-62 NSCLC,< 0.01 µM
same,TGI,HOP-62 NSCLC,> 100 µM
same,GI50,HOP-92 NSCLC,22.2 µM
same,TGI,HOP-92 NSCLC,> 100 µM
same,GI50,HS 578T breast,< 0.01 µM
same,TGI,HS 578T breast,< 0.01 µM
same,GI50,HT29 colon,< 0.01 µM
same,TGI,HT29 colon,< 0.01 µM
same,GI50,IGROV1 ovarian,< 0.01 µM
same,TGI,IGROV1 ovarian,> 100 µM
same,GI50,KM12 colon,< 0.01 µM
same,TGI,KM12 colon,> 100 µM
same,GI50,LOX IMVI melanoma,< 0.0407 µM
same,TGI,LOX IMVI melanoma,22.6 µM
same,GI50,M14 melanoma,< 0.01 µM
same,TGI,M14 melanoma,> 100 µM
same,TGI,MALME-3M melanoma,> 49.2 µM
same,GI50,MCF7 breast,< 0.01 µM
same,TGI,MCF7 breast,> 61.5 µM
same,GI50,MDA-MB-435 melanoma,< 0.01 µM
same,TGI,MDA-MB-435 melanoma,< 0.01 µM
same,GI50,MDA-MB-468 breast,< 0.01 µM
same,TGI,MDA-MB-468 breast,< 0.01 µM
same,GI50,MOLT-4 leukemia,< 0.01 µM
same,TGI,MOLT-4 leukemia,< 0.01 µM
same,GI50,NCI-H226 lung,< 0.01 µM
same,TGI,NCI-H226 lung,18.5 µM
same,GI50,NCI-H23 lung,< 0.01 µM
same,TGI,NCI-H23 lung,> 100 µM
same,TGI,NCI-H322M lung,> 100 µM
same,GI50,NCI-H460 NSCLC,< 0.01 µM
same,TGI,NCI-H460 NSCLC,< 0.01 µM
same,GI50,NCI-H522 lung,< 0.01 µM
same,TGI,NCI-H522 lung,< 0.01 µM
same,GI50,NCI/ADR-RES ovarian,0.0189 µM
same,TGI,NCI/ADR-RES ovarian,0.0548 µM
same,GI50,OVCAR-3 ovarian,< 0.01 µM
same,GI50,OVCAR-4 ovarian,< 0.01 µM
same,TGI,OVCAR-4 ovarian,31.3 µM
same,GI50,OVCAR-5 ovarian,< 0.01 µM
same,TGI,OVCAR-5 ovarian,> 100 µM
same,GI50,PC-3 prostate,< 0.01 µM
same,TGI,PC-3 prostate,> 80.5 µM
same,GI50,RPMI-8226 leukemia,< 0.01 µM
same,TGI,RPMI-8226 leukemia,< 0.01 µM
same,GI50,RXF 393 renal,< 0.01 µM
same,TGI,RXF 393 renal,< 0.01 µM
same,TGI,SF-268 CNS,> 62.6 µM
same,GI50,SF-295 CNS,< 0.01 µM
same,GI50,SF-539 CNS,< 0.01 µM
same,GI50,SK-MEL-28 melanoma,> 100 µM
same,TGI,SK-MEL-28 melanoma,> 100 µM
same,GI50,SK-MEL-5 melanoma,< 0.01 µM
same,TGI,SK-MEL-5 melanoma,< 0.01 µM
same,GI50,SK-OV-3 ovarian,< 0.01 µM
same,TGI,SK-OV-3 ovarian,> 100 µM
same,GI50,SN12C renal,< 0.01 µM
same,TGI,SN12C renal,> 100 µM
same,GI50,SNB-19 CNS,< 0.01 µM
same,TGI,SNB-19 CNS,> 100 µM
same,GI50,SNB-75 CNS,< 0.01 µM
same,GI50,SR leukemia,< 0.01 µM
same,TGI,SR leukemia,< 0.01 µM
same,GI50,T-47D breast,< 0.01 µM
same,TGI,T-47D breast,89 µM
same,GI50,TK-10 renal,< 0.01 µM
same,TGI,TK-10 renal,> 100 µM
same,GI50,U251 glioblastoma,< 0.01 µM
same,TGI,U251 glioblastoma,21.2 µM
same,GI50,UACC-257 melanoma,32.7 µM
same,TGI,UACC-257 melanoma,> 100 µM
same,GI50,UACC-62 melanoma,< 0.01 µM
same,TGI,UACC-62 melanoma,> 49.7 µM
same,GI50,UO-31 renal,< 0.0128 µM
same,TGI,UO-31 renal,> 100 µM
Cc1ccc(C(=O)Nc2ccc(Oc3cc4cnn(C)c4cc3-c3cn[nH]c3)c(F)c2)c(=O)n1-c1ccc(F)cc1,GI50,786-0 renal,> 100 µM
same,TGI,786-0 renal,> 100 µM
same,GI50,ACHN renal,6.44 µM
same,TGI,ACHN renal,> 100 µM
same,GI50,CAKI-1 renal,5.86 µM
same,TGI,CAKI-1 renal,> 100 µM
same,GI50,COLO 205 colon,4.91 µM
same,TGI,COLO 205 colon,> 100 µM
same,GI50,HCC-2998 colon,> 100 µM
same,TGI,HCC-2998 colon,> 100 µM
same,GI50,HOP-62 NSCLC,3.81 µM
same,TGI,HOP-62 NSCLC,> 100 µM
same,GI50,HOP-92 NSCLC,> 100 µM
same,TGI,HOP-92 NSCLC,> 100 µM
same,GI50,HS 578T breast,10.6 µM
same,TGI,HS 578T breast,> 100 µM
same,GI50,HT29 colon,3.03 µM
same,TGI,HT29 colon,> 100 µM
same,GI50,IGROV1 ovarian,5.27 µM
same,TGI,IGROV1 ovarian,> 100 µM
same,GI50,KM12 colon,0.0165 µM
same,TGI,KM12 colon,> 100 µM
same,GI50,LOX IMVI melanoma,4.05 µM
same,TGI,LOX IMVI melanoma,> 100 µM
same,GI50,M14 melanoma,2.56 µM
same,TGI,M14 melanoma,> 100 µM
same,GI50,MALME-3M melanoma,5.29 µM
same,TGI,MALME-3M melanoma,> 100 µM
same,GI50,MCF7 breast,5.56 µM
same,TGI,MCF7 breast,> 100 µM
same,GI50,MDA-MB-231 breast,> 100 µM
same,TGI,MDA-MB-231 breast,> 100 µM
same,GI50,MOLT-4 leukemia,1.08 µM
same,TGI,MOLT-4 leukemia,19.8 µM
same,GI50,NCI-H23 lung,10.4 µM
same,TGI,NCI-H23 lung,> 100 µM
same,GI50,NCI-H322M lung,> 100 µM
same,TGI,NCI-H322M lung,> 100 µM
same,GI50,NCI/ADR-RES ovarian,> 100 µM
same,TGI,NCI/ADR-RES ovarian,> 100 µM
same,GI50,OVCAR-4 ovarian,> 100 µM
same,TGI,OVCAR-4 ovarian,> 100 µM
same,GI50,OVCAR-5 ovarian,> 100 µM
same,TGI,OVCAR-5 ovarian,> 100 µM
same,GI50,OVCAR-8 ovarian,> 100 µM
same,TGI,OVCAR-8 ovarian,> 100 µM
same,GI50,RXF 393 renal,2.57 µM
same,TGI,RXF 393 renal,> 100 µM
same,GI50,SF-268 CNS,0.698 µM
same,TGI,SF-268 CNS,7.36 µM
same,GI50,SF-295 CNS,2.37 µM
same,TGI,SF-295 CNS,> 100 µM
same,GI50,SK-MEL-28 melanoma,7.28 µM
same,TGI,SK-MEL-28 melanoma,> 100 µM
same,GI50,SNB-75 CNS,6.22 µM
same,TGI,SNB-75 CNS,> 100 µM
same,GI50,SW-620 colon,> 100 µM
same,TGI,SW-620 colon,> 100 µM
same,GI50,TK-10 renal,> 100 µM
same,TGI,TK-10 renal,> 100 µM
same,GI50,UACC-62 melanoma,2.42 µM
same,TGI,UACC-62 melanoma,> 100 µM
same,GI50,UO-31 renal,> 100 µM
same,TGI,UO-31 renal,> 100 µM
